These results are taken from ChEMBL document CHEMBL1201862, “PubChem BioAssay data set” (2004).

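Each compound was tested at five concentrations against cells in 96-well plates for 48 hours. GI50 marks 50% less growth.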 Activity calls are given as the source filed them. Cut-off read from the data, not from the text of the source: active = GI50 up to about 1.1 µM and inactive = higher.

Among the test systems are RXF 631; DMS-114; SNB-78; LXFL 529; DMS-273; XF498; HOP-18; DLD-1; KM-20L2.
Experiment in all cases: NCI tumour cell line growth inhibition, 48 h

As for `COC(=O)C[C@H]1CCC2(OCCO2)[C@]1(C)C(=O)OC`, the GI50 with RXF 631, in the test with DMS-114, with SNB-78, with LXFL 529, in the test on DMS-273 and with XF498 was > 100 µM (inactive) in each case.
In the case of `CN(C)CCC(=O)/C=C\c1ccccc1`, the GI50 in the test on HOP-18 is 22.6 µM (inactive); in the test with RXF 631 it was 18.1 µM (inactive); in the test on DMS-114, 18.2 µM (inactive); in the test on DLD-1 it was 15.8 µM (inactive); in the test with KM-20L2, 30.6 µM (inactive); with SNB-78 it was 15.5 µM (inactive). The results for the GI50 in the test on LXFL 529, in the test on DMS-273 and in the test on XF498 were 13.5 µM (inactive), 16.3 µM (inactive) and 14.9 µM (inactive), respectively.
For `CC(C)(CN1CCCCC1)C(=O)/C=C/c1ccc(Br)cc1`, the GI50 in the test with HOP-18 was 2.47 µM (inactive); in the test on DMS-114, 1.47 µM (inactive); in the test on DLD-1, 3.01 µM (inactive); in the test on KM-20L2, 2.49 µM (inactive); with SNB-78 it was 8.07 µM (inactive); in the test with LXFL 529 it was 1.81 µM (inactive). Further, the values for the GI50 with DMS-273 and in the test on XF498 were 2 µM (inactive) and 2.05 µM (inactive), respectively.
Consider `COc1ccc(NC(=O)/C(Cc2nc3ccccc3nc2O)=N\O)c(OC)c1`, for which the GI50 with HOP-18, in the test on RXF 631, in the test with DMS-114, in the test on DLD-1, in the test with KM-20L2 and in the test with SNB-78 was > 100 µM (inactive) throughout. Moreover, the GI50 in the test on LXFL 529 and in the test on XF498 was > 100 µM (inactive) throughout.
For the compound `CC1(C)OC2C(CCP(=O)(O)O)OC(c3nc(C(N)=O)cs3)C2O1` (configuration not stated), the GI50 in the test with HOP-18, with RXF 631, with DMS-114, in the test with DLD-1, with KM-20L2 and with LXFL 529 was > 100 µM (inactive) throughout. The GI50 in the test with DMS-273 is > 100 µM (inactive).
As to `CCN(CC)CCCCC1CCN(CC(=O)N2c3ccccc3NC(=O)CC2C)CC1` (configuration not stated), the GI50 in the test on HOP-18 was > 100 µM (inactive); in the test with RXF 631, 30.1 µM (inactive); with DMS-114, 69 µM (inactive); with KM-20L2, > 100 µM (inactive); in the test with SNB-78 it was > 100 µM (inactive); with LXFL 529 it was > 100 µM (inactive). In the test on DMS-273, the GI50 was > 100 µM (inactive).
`C[C@]12CC[C@H](OC(=O)Cc3ccc(N(CCCl)CCCl)cc3)CC1CC[C@@H]1C2CC[C@]2(C)NC(=O)CCC12` (some centres not stated): the GI50 is 16.7 µM (inactive) with HOP-18; 16 µM (inactive) in the test with RXF 631; 6.31 µM (inactive) with DMS-114; 16.3 µM (inactive) in the test with DLD-1; 5.58 µM (inactive) with KM-20L2; 14.1 µM (inactive) in the test on SNB-78. Further, the GI50 was 8.3 µM (inactive) in the test with LXFL 529, 5.64 µM (inactive) in the test with DMS-273 and 13.6 µM (inactive) with XF498.
As for `C=C(CS(=O)(=O)c1ccccc1)C(=O)OCC`, the GI50 was 1.9 µM (inactive) with RXF 631; 5.37 µM (inactive) in the test on DMS-114; 4.49 µM (inactive) in the test with DLD-1; 21.8 µM (inactive) in the test with KM-20L2; 13.4 µM (inactive) with LXFL 529; 16.4 µM (inactive) in the test with DMS-273. For the same compound, in the test with XF498, the GI50 is 19.2 µM (inactive).
On to `CC1=NN(C(=O)CC(=O)N(C(=O)c2ccccc2Cl)c2ccc(C)cc2)C(=O)C1/N=N/c1ccc([N+](=O)[O-])cc1` (configuration not stated), for which the GI50 in the test with HOP-18 is > 62.8 µM (inactive); with DMS-114, > 42.8 µM (inactive); in the test on DLD-1, > 45.9 µM (inactive); in the test with KM-20L2 it was > 55.6 µM (inactive); with SNB-78, 57.5 µM (inactive); in the test with LXFL 529, 49.4 µM (inactive). For the same compound, the GI50 in the test on DMS-273 was 48.9 µM (inactive); with XF498, > 100 µM (inactive).
Take `Cc1nc2sccn2c1C(=O)N/N=C1\SCC(=O)N1C`: the GI50 is 26.3 µM (inactive) with HOP-18; > 100 µM (inactive) in the test on RXF 631; > 100 µM (inactive) in the test on DMS-114; > 100 µM (inactive) with DLD-1; > 100 µM (inactive) in the test on KM-20L2; > 100 µM (inactive) with LXFL 529. For the same compound, the GI50 with DMS-273 and in the test on XF498 was > 100 µM (inactive) each time.
For `O=C1CC2CCCC23CC2(CCN13)OCCO2` (configuration not stated), the GI50 with HOP-18, in the test with RXF 631, in the test on DMS-114, in the test with DLD-1, with KM-20L2 and in the test with SNB-78 was > 100 µM (inactive) throughout. Moreover, the GI50 in the test on LXFL 529, with DMS-273 and in the test on XF498 was > 100 µM (inactive) each time.
In the case of `COC(=O)[C@@H](C)[C@H]1CC[C@@](C)(CCC2=C(C)CC3C=C(C)CCC3C2(C)C)OO1` (some centres not stated), the GI50 in the test with RXF 631 was 2 µM (inactive); in the test on DMS-114, 1.81 µM (inactive); in the test on DLD-1 it was 0.962 µM (active); in the test on KM-20L2, 1.7 µM (inactive); with SNB-78, 2.23 µM (inactive); with LXFL 529, 1.03 µM (active). Also, in the test on DMS-273, the GI50 was 2.18 µM (inactive).
Consider `COc1ccc(C(=O)C2=NON3OC23C(=O)c2ccc(OC)cc2)cc1` (configuration not stated), for which the GI50 with HOP-18 is 18.9 µM (inactive); in the test with RXF 631, 15.1 µM (inactive); with DMS-114 it was 5.96 µM (inactive); with DLD-1, 7.28 µM (inactive); in the test with KM-20L2, 19.1 µM (inactive); with SNB-78, 13 µM (inactive). Also, the values for the GI50 in the test with LXFL 529, in the test on DMS-273 and in the test with XF498 were 2.63 µM (inactive), 19.1 µM (inactive) and 10 µM (inactive), respectively.
In the case of `CCOC1=C2C(C)(CCC3[C@@]4(C)C=CC(=O)C(C)(C)C4CC(O)[C@@]23C)C(c2ccoc2)C1=O` (some centres not stated), the GI50 with HOP-18 was 33.7 µM (inactive); in the test with RXF 631 it was 17.9 µM (inactive); in the test with DMS-114, 15.6 µM (inactive); with DLD-1 it was 11.4 µM (inactive); in the test with KM-20L2, 17.1 µM (inactive); in the test on SNB-78 it was 38.5 µM (inactive). Moreover, the GI50 in the test with DMS-273 was 25.2 µM (inactive); in the test with XF498 it was > 10 µM (inactive).
`COc1ccc(C(=O)C#Cc2cnc(O)nc2O)cc1`: the GI50 with HOP-18 was 24.5 µM (inactive); with RXF 631, 8.89 µM (inactive); in the test on DMS-114, 18.7 µM (inactive); in the test on DLD-1 it was 6.32 µM (inactive); in the test on KM-20L2 it was 9.86 µM (inactive); with SNB-78, 16.1 µM (inactive). Besides, the GI50 was 3.36 µM (inactive) in the test with LXFL 529 and 14.9 µM (inactive) with DMS-273.
`COc1ccc(CCc2cc(OC)cc(OC)c2)cc1`: the GI50 in the test with HOP-18 is > 32.4 µM (inactive); in the test on RXF 631, 13.7 µM (inactive); with DMS-114, 3.9 µM (inactive); with DLD-1, 23.1 µM (inactive); in the test with KM-20L2, 13.6 µM (inactive); in the test with SNB-78, 51.4 µM (inactive). Further, the GI50 in the test with LXFL 529 is 32.9 µM (inactive); in the test with DMS-273, 5.15 µM (inactive); in the test with XF498, 16.7 µM (inactive).
